In patent US7951806B2, “Plasminogen activator inhibitor-1 inhibitor” (Renascience Co., Ltd., priority 2007, dated 2011):
Marks after values point to notes of the source that are not given here.

Columns and labels:
PAI-1 [1] = target: T1, PAI-1 (Homo sapiens, UniProt P05121); test: PAI-1 Inhibitory Activity Assay (Reference Test Example 1 (1)); format: biochemical; settings: 35 μM and 50 μM; FIG. 14
T1 construct: purchased Molecular Innovations Inc., USA (PAI-1); American Diagnostica, Inc., USA (t-PA)
Experimental: The compounds a and b (test compounds) were evaluated for inhibitory action on human PAI-1 (product of Molecular Innovations Inc., USA, hereinafter referred to the same). More specifically, human PAI-1 was added to a 0.1% Tween 80-containing 100 mM Tris-HCl (pH 8) solution each containing the above compound respectively in a given concentration (20, 35, 50 and 100 μM), and incubated at 37° C. for 15 minutes. Subsequently, added thereto was human tissue plasminogen activator (t-PA) (product of American Diagnostica, Inc., USA, hereinafter referred to the same), adjusted to […], and further incubated at 37° C. for 15 minutes. Then, 1.25 mM of S-2288 synthesized substrate (product of Chromogenix, Italy, hereinafter referred to as the same), a chromogenic substrate, was added thereto. The final mixed solution contained 100 mM Tris-HCl (pH 8), 30 mM NaCl, 1% DMSO, 0.1% Tween […], 9.8 nM t-PA, 1 mM S-2288 and the test compound a or b (20, 35, 50 or 100 μM).
Free radical p-nitroanilide removed from the chromogenic substrate (S-2288) by t-PA action was measured using a spectrophotometer at an absorbance of 405 nm, every 5 minutes, for 30 minutes. […]

PAI-1 [2] = target: T1, PAI-1; test: Fibrinolytic Action Assay (fibrin plate, PAI-1 + t-PA + test compound); format: biochemical; settings: mixture of PAI-1, t-PA and test compound, 18 hours at room temperature
Experimental: The compounds a and b were evaluated for fibrinolytic action in accordance with the method disclosed in the document (Matsuo, O. et al., Haemostasis 16, 43-50 (1986)).
More specifically, an aqueous solution (25 mM barbital sodium, 50 mM NaCl, and 25 mM CaCl2) containing a concentration of 1.5 mg/ml of fibrinogen (product of Organon Teknica) was added on a 9 cm-plate to thrombin (10NIH U/ml: product of Mochida Pharmaceutical Co., Ltd.) dissolved in a 0.2 ml physiological saline, and the mixture was allowed to stand for 2 hours at room temperature. Using this mixture, fibrinolysis assay was conducted.
Namely, a mixture of PAI-1, t-PA and a test compound were dropped onto the above-mentioned plate, and incubated for 18 hours at room temperature. Fibrinolysis due to the plasminogen activation was assayed in terms of the lysed area on the plate.

[3] = test system: bleomycin-induced pulmonary fibrosis; test: Effects on bleomycin-induced pulmonary fibrosis (mouse model); format: in vivo
Experimental: (§1) A C57BL/6 mouse (male, body weight 19 to 21 g) was intraperitoneally anesthetized with pentobarbital, and an incision was made on the cervical organ. Ten mice were used as controls. The control mice (n=10) were endotracheally administered with bleomycin (product of Nippon Kayaku Co., Ltd.) (1.5 U/kg), lysed in physiological saline, twice a day for 14 days. On the other hand, the test mice were subjected to forcible oral administration with the compound b (200 mg/kg), suspended in a 0.5% carboxymethyl cellulose aqueous solution, twice a day for 14 days, in addition to the above endotracheal administration. Then, the lung tissues taken from these control mice and the test mice were analyzed, and further assayed for hydroxyproline levels. The hydroxyproline levels in the lung tissues were assayed in terms of the level in the hydrolysate of the lung tissues as described in the method of Kivirikko et al (Anal. Biochem. 19, 249-255 (1967)). Pulmonary fibrosis levels (severity) were scored from 0 to 8, based on the method of Ashcort et al (J. Clin. Pathol. 41, 467-470, (1988)). Further, the control mice and test mice were assayed for plasma PAI-1 activity (ng/ml). The results of lung tissue analysis were shown in FIG. 15 (a represents fibrosis score and b is a set of histological stain images).

plasma PAI-1 = target: T2, plasma PAI-1 (Mus musculus, UniProt P22777); test: Plasma PAI-1 activity in mice with bleomycin-induced pulmonary fibrosis; format: in vivo
T2 construct: from tissue; host or cells: mouse plasma (C57BL/6, male)
T2 sequence (P22777 23-402): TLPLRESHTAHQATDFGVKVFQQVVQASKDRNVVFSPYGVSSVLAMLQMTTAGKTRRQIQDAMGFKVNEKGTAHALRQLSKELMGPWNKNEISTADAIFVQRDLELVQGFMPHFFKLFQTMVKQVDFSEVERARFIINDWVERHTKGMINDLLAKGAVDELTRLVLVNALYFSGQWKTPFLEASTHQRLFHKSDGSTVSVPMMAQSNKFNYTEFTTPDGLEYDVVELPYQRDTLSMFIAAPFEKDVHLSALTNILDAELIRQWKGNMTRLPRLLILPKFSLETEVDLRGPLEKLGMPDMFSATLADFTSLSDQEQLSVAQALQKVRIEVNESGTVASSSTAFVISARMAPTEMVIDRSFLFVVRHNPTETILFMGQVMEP
Experimental: as §1

[4] = C57BL/6 mice, bleomycin, 200 mg/kg p.o. twice/day for 14 days in 0.5% CMC, n=10, mean±SE
[5] = versus elevation by bleomycin, 200 mg/kg p.o. twice a day

T1 sequence (P05121 24-402): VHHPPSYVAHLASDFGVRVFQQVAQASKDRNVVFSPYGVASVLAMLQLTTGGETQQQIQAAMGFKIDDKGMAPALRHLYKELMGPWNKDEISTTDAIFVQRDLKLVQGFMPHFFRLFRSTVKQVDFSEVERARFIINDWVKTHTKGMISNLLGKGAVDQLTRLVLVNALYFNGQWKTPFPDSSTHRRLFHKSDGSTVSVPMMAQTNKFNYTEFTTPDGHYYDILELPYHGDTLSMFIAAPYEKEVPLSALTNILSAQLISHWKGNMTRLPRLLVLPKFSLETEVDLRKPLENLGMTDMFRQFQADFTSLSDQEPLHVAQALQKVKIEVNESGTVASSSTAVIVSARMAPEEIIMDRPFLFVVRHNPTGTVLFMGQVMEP

Row | Plasma PAI-1 Activity (plasma PAI-1; [4]) | plasma PAI-1 activity (in words) (plasma PAI-1; [5]) | Structure (SMILES) | PAI-1 activity inhibitory action compared with tiplaxtinin (PAI-1 [1]) | fibrinolysis (lysed area on the plate) (PAI-1 [2]) | Hydroxyproline Level in Lung Tissue [3, 4] | fibrosis score ([3]; scored from 0 to 8 (Ashcroft), bleomycin mice, 200 mg/kg p.o. twice a day for 14 days, FIG. 15) | hydroxyproline level in the lung tissues (in words) [3, 5]
1 |  |  | CCC(CC(=O)Nc1scc(-c2ccccc2)c1C(=O)O)C(=O)Nc1scc(-c2ccccc2)c1C(=O)O (stereo not drawn) [compound a, 2-[3-(3′-Carboxy-4′-phenylthiophen-2′-ylcarbamoyl)-pentanoylamino]-4-phenylthiophen-3-carboxylic acid] | higher PAI-1 activity inhibitory action at concentrations of 35 μM and 50 μM than tiplaxtinin | inhibit the fibrinolysis suppression caused by PAI-1 |  |  | 
2 | 1.2 ± 0.1^b ng/ml | significantly decreases | CCC(CC(=O)Nc1scc(-c2cccs2)c1C(=O)O)C(=O)Nc1scc(-c2cccs2)c1C(=O)O (stereo not drawn) [compound b, 2-[3-(3′-carboxy-4′-thienylthiophen-2′-ylcarbamoyl)-pentanoylamino]-4-thienylthiophen-3-carboxylic acid] | higher PAI-1 activity inhibitory action at concentrations of 35 μM and 50 μM than tiplaxtinin | inhibit the fibrinolysis suppression caused by PAI-1 | 204.2 ± 9.5^b μg/lung | 2.9±0.42 | significantly decreases
